Test results from US20260283149A1, “DEVELOPMENT AND APPLICATION OF SYNTHETIC INHIBITORS OF PHOTOSYNTHESIS” (University of Florida Research Foundation, Incorporated, priority 2023, published 2026).

Key:
[1] = tested on: Arabidopsis; experiment: Growth of Arabidopsis plants on MS medium containing the compound; assay type: in vivo, Arabidopsis thaliana (Col-0); conditions: 1% sucrose, 10-100 μM, applied at 2 to 50 times lower concentrations than standard herbicides such as DCMU or glyphosate
Procedure: (§1) FIG. 11. Growth inhibition of Arabidopsis and Synechocystis by duroquinone, the unprenylated structural analogue of methyl-plastoquinone-9. (A) Structure of duroquinone. (B) Seven-day-old Arabidopsis plants (Col-0) grown on MS medium containing 1% sucrose (w/v) and 0, 10, 25, 50, or 100 μM duroquinone in 12-hour days (110 μE m^−2 s^−1) at 22° C. (C) Growth curve of Synechocystis sp. PCC 6803 at 30° C. in liquid BG-11 medium containing glucose, and with or without duroquinone. Data are means of three biological replicates±SE. Asterisks indicate significant differences (0 μM vs. 10 μM duroquinone) as determined by Fisher's test (p<α=0.05) from an analysis of variance.
Ten day-old Arabidopsis plants (Col-0) were grown on MS medium containing 1% sucrose (w/v), 0.095% EtOH, and 0, 10, 25, 50 or 100 μM methyl-plastoquinone analogues in 12-h days (photon flux of 110 μmol m^−2s^−1) at 22° C.

[2] = tested on: Synechocystis sp. PCC6803 cells; experiment: Growth inhibition of Synechocystis sp. PCC 6803 in liquid BG-11 medium; assay type: cell-based; conditions: for growth inhibition of Synechocystis sp. PCC6803 cells: liquid BG-11 medium with glucose, growth monitored at 700 nm; for inhibitory activity on growth of Synechocystis sp. PCC6803 cells (overall grade): tested at 10 and 25 microM
Procedure: as §1
FIG. 13. Growth inhibition of Synechocystis sp. PCC 6803 by structural analogues of methyl-plastoquinone-9. Synechocystis sp. PCC6803 cells were grown in liquid BG-11 medium containing […] (80 μE m^−2 s^−1; 24-hour days; 30° C.). Cell growth was monitored spectrophotometrically at 700 nm.
FIG. 15. Growth curve of Synechocystis treated with analogues grown photomixotrophically and photoautotrophically. Wild-type Synechocystis was grown in BG-11 and either with 5 mM glucose for photomixotrophic or w/o for photoautotrophic with treatment of either 0, 10 or 25 μM of the corresponding methylplastoquinone analog w/ 0.095% EtOH final and grown at a continuous light intensity of 50μ photons m^−2s^−1 at 30° C. with shaking 125 rpm. Data are means of 2 biological replicates ±SD.
Several analogues of Methylplastoquinone (FIG. 14) were tested for their ability to act as herbicides. Synechocystis were grown photomixotrophically (BG-11 plus 5 mM glucose) and photoautotrophically (BG-11 without glucose) at a continuous light intensity of 50μ photons m^−2s^−1 at 30° C. with shaking 125 rpm. The cultures were further treated with 0, 10, or 25 μM Doruquinone (DQ), 2,6-dimethly-1,4-benzoquinone (DMBQ), 2,6-dimethoxy-1,4-benzoquinone (DMOBQ), 2,6-dichloro-1,4-benzoquinone (DCBQ), or 2-chloro-1,4-benzoquinone (CBQ), each with […] ethanol.

[3] = tested on: Arabidopsis; experiment: Accumulation of methyl-plastoquinone-9 in dexamethasone-induced plastid-targeted COQ5 Arabidopsis transgenics; assay type: in vivo, Arabidopsis thaliana; conditions: transgenics are seedling lethal
[4] = tested on: Synechocystis; experiment: Accumulation of methyl-plastoquinone-9 in COQ5-expressing Synechocystis DPhQ-MT knockout cells; assay type: cell-based, Synechocystis sp. PCC 6803; conditions: especially when cultured photoautotrophically; clones evolve suppressor mutations in COQ5
Text: For expression in Synechocystis, gene sll1653 and N-terminally truncated versions of At5g57300 (S23→M23) and At1g23360 (V28→M28) cDNAs were PCR amplified using primers that contained the NdeI(5′) and BglII(3′) restriction sites. PCR fragments were cloned into NdeI/BglII-digested pSynExp-2 expression vector (Sattler S E et al. “Characterization of tocopherol cyclases from higher plants and cyanobacteria. Evolutionary implications for tocopherol synthesis and function.” Plant Physiol. 132, 2184-2195 (2003)), and the resulting constructs were introduced into Synechocystis Δsll1653::aadA knockout cells (Lohmann A et al. 2006). Transformed cells were selected on BG-11 plates containing and chloramphenicol ([…]), and spectinomycin (15 μg/ml) at 22° C. in 12-hour days (70 μE m^−2s^−1). […] Induction and analyses of chlorophyll fluorescence were performed on one month-old dark-adapted plants using a FluorCam 800 MF imaging system (Photon Systems Instruments).
To further investigate why clade 2 C-methyltransferases evolved strict substrate preference, the effect of replacing cognate cyanobacterial and plastid-targeted DPhQ-MT with a bifunctional COQ5 counterpart was examined. […] These constructs were then introduced into a Synechocystis DPhQ-MT knockout strain and the growth of individual clones was scored via serial dilution assays (FIG. 3 A-B).

CC1=C(C)C(=O)C(C)=C(C)C1=O [duroquinone]
toxicity in Arabidopsis [1]: marked toxicity | growth inhibition of Synechocystis sp. PCC6803 cells ([2]; 10 microM): complete growth inhibition | growth inhibition of Synechocystis sp. PCC6803 cells ([2]; 25 microM): complete growth inhibition

O=C1C=CC(=O)C(Cl)=C1 [2-chloro-1,4-benzoquinone]
growth inhibition of Synechocystis sp. PCC6803 cells ([2]; 10 microM): complete growth inhibition | growth inhibition of Synechocystis sp. PCC6803 cells ([2]; 25 microM): complete growth inhibition | inhibitory activity on growth of Synechocystis sp. PCC6803 cells (overall grade) [2]: as effective as duroquinone

CC1=CC(=O)C=C(C)C1=O [2,6-dimethyl-1,4-benzoquinone]
growth inhibition of Synechocystis sp. PCC6803 cells ([2]; 25 microM): complete growth inhibition | inhibitory activity on growth of Synechocystis sp. PCC6803 cells (overall grade) [2]: intermediate inhibitory activity

COC1=CC(=O)C=C(OC)C1=O [2,6-dimethoxy-1,4-benzoquinone]
inhibitory activity on growth of Synechocystis sp. PCC6803 cells (overall grade) [2]: low to marginal inhibitory activity

O=C1C=C(Cl)C(=O)C(Cl)=C1 [2,6-dichloro-1,4-benzoquinone]
inhibitory activity on growth of Synechocystis sp. PCC6803 cells (overall grade) [2]: low to marginal inhibitory activity

CC(C)=CCCC(C)=CCCC(C)=CCCC(C)=CCCC(C)=CCCC(C)=CCCC(C)=CCCC(C)=CCC/C(C)=C/CC1=C(C)C(=O)C(C)=C(C)C1=O [methyl-plastoquinone-9]
toxicity of accumulation in Arabidopsis COQ5 transgenics [3]: acutely toxic | toxicity of accumulation in Synechocystis COQ5 transformants [4]: acutely toxic
